One assay has as its target EGFR L858R (Homo sapiens (Human), UniProt P00533, L858R). Put plainly: Biochemical EGFR inhibition assay, EGFR L858R. The note with it: Caliper mobility shift; 1.0 mM ATP or ATP Km; read-out: Enz EGFR_L858R IC50.
In assay [1] the target is pEGFR (Tyr1068) in PC-9 cells (Ex19Del) (Homo sapiens (Human), UniProt P00533, DEL746-750). Briefly: PC-9 pEGFR AlphaLISA assay. The note with it: 4 hours incubation, p-EGFR (Tyr1068) AlphaLISA, read-out: Ext pEGFR_PC-9 Ex19Del IC50. It is filed as cell-based. In short, it runs like this:
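Compounds are added in ten 4-fold dilutions to adherent cells grown in serum-containing (10% FBS) phenol-free DMEM and left for 4 hours at 37° C. Phosphorylated receptor in lysates is quantified by bead-based AlphaLISA. IC50 values derive from inhibition plotted against log dose.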

In another assay the target is EGFR (d746-750) (Homo sapiens (Human), UniProt P00533, DEL746-750). Put plainly: Biochemical EGFR inhibition assay, EGFR (d746-750). The note with it: Caliper mobility shift; 1.0 mM ATP or ATP Km; read-out: Enz EGFR_Exon19-del746-750 IC50.
Chain of EGFR (d746-750) (P00533 other isoform, or with tags, fused parts or gaps del 1-694/del 746-750 limits assumed): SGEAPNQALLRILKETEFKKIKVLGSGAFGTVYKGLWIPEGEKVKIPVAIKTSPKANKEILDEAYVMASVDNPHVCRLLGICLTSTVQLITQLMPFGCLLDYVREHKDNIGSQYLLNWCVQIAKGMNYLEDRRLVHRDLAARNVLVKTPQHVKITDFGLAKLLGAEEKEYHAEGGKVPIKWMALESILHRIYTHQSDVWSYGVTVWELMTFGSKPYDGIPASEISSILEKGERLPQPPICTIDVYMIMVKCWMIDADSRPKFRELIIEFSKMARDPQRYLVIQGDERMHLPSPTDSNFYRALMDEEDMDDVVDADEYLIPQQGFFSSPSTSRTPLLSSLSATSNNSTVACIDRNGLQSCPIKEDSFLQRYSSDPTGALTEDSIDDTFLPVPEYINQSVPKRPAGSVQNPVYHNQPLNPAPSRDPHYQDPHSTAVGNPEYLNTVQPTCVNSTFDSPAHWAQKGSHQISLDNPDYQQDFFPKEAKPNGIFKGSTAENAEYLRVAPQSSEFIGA

We go through 21 molecules from US20250236608A1, “EGFR INHIBITORS” (Blueprint Medicines Corporation, priority 2022, published 2025).

Chain of pEGFR (Tyr1068) in PC-9 cells (Ex19Del) (P00533 other isoform, or with tags, fused parts or gaps del 746-750): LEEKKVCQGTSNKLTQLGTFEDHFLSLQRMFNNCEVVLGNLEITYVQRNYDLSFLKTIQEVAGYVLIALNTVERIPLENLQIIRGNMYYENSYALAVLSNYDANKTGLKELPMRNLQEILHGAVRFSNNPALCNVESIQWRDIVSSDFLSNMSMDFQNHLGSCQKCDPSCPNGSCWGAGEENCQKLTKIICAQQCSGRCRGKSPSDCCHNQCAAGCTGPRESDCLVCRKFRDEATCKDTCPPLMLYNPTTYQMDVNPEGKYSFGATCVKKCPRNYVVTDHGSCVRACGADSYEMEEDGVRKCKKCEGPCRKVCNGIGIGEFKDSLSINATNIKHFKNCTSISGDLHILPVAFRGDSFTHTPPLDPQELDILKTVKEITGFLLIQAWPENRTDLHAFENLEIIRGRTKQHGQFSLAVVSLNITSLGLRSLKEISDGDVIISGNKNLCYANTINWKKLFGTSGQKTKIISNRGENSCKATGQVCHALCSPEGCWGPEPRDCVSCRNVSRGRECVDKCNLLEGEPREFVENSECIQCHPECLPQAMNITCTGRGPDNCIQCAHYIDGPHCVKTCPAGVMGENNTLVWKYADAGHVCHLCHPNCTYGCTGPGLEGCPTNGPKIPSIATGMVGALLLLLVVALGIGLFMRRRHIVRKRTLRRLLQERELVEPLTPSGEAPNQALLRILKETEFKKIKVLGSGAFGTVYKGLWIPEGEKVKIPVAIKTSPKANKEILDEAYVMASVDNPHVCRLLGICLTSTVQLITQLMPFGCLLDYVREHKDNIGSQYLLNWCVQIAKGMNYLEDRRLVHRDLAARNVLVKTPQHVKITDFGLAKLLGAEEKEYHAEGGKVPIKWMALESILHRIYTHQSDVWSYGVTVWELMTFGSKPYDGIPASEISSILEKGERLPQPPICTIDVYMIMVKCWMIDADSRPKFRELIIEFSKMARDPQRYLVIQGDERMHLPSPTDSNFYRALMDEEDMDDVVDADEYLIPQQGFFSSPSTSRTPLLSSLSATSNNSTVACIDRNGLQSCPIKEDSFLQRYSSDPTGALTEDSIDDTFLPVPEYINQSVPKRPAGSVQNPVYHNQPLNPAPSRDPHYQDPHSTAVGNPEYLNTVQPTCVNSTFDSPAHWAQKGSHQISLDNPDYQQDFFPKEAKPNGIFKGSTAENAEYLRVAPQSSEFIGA
Chain of EGFR L858R (P00533 25-1210 L858R): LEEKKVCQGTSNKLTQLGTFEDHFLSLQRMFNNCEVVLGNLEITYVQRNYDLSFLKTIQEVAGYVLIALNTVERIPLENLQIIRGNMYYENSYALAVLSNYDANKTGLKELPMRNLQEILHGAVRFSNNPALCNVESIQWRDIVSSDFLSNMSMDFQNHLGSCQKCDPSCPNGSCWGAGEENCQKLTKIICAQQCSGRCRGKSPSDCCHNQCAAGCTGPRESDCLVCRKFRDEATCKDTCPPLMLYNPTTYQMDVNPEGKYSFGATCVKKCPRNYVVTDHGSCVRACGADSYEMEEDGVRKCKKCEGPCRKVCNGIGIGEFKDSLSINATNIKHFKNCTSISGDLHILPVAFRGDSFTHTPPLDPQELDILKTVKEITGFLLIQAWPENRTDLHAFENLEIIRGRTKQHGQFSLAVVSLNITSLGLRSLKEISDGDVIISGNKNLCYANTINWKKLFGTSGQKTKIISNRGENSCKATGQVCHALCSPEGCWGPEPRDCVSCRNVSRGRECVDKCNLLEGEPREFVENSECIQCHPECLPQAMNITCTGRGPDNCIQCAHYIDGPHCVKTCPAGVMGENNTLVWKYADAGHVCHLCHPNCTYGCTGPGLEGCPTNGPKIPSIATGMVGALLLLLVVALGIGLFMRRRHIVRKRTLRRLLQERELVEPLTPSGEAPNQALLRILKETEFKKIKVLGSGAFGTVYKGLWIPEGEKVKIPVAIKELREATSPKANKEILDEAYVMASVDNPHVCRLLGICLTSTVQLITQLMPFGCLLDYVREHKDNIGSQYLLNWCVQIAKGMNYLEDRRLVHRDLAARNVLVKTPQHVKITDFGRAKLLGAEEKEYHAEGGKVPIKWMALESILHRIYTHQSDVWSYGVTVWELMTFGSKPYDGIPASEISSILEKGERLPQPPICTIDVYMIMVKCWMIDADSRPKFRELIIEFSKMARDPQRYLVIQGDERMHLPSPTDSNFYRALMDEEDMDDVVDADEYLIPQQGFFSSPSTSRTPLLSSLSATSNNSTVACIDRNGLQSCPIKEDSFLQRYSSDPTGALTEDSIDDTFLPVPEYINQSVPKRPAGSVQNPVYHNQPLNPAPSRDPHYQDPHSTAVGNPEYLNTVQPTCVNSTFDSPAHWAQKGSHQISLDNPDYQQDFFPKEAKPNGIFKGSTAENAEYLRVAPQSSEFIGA

`COc1cc2ncnc(-c3cn(C)nc3-c3ccccc3)c2cc1OC(=O)N1CCN(C)C[C@H]1C` (single isomer, unassigned) [Example 58, 7-methoxy-4-(1-methyl-3-phenyl-1H-pyrazol-4-yl)quinazolin-6-yl (R)-2,4-dimethylpiperazine-1-carboxylate or 7-methoxy-4-(1-methyl-3-phenyl-1H-pyrazol-4-yl)quinazolin-6-yl(S)-2,4-dimethylpiperazine-1-carboxylate]: the concentration for half-maximal inhibition (IC50) at EGFR L858R came out at 4.5 nM; in assay [1], 5.1 nM; at EGFR (d746-750) it was 2.5 nM.

Regarding `COc1cc2ncnc(-c3cn(C)nc3-c3ccccc3)c2nc1NC(=O)[C@]12C[C@H]1CN(C)C2` (single isomer, unassigned) [Example 393, (1R,5R)—N-(7-methoxy-4-(1-methyl-3-phenyl-1H-pyrazol-4-yl)pyrido[3,2-d]pyrimidin-6-yl)-3-methyl-3-azabicyclo[3.1.0]hexane-1-carboxamide or (1S,5S)—N-(7-methoxy-4-(1-methyl-3-phenyl-1H-pyrazol-4-yl)pyrido[3,2-d]pyrimidin-6-yl)-3-methyl-3-azabicyclo[3.1.0]hexane-1-carboxamide], the half-inhibitory concentration (IC50) at EGFR L858R is 2.1 nM; in assay [1], 3.5 nM; at EGFR (d746-750), 0.9 nM.

Consider `[2H]C([2H])([2H])N1CCN(C(=O)Oc2cc3c(-c4cn(C)nc4-c4ccccc4)ncnc3cc2OC)[C@@H](C)C1` [Example 93, 7-methoxy-4-(1-methyl-3-phenyl-1H-pyrazol-4-yl)quinazolin-6-yl(S)-2-methyl-4-(methyl-d3) piperazine-1-carboxylate], for which the figures for the concentration for half-maximal inhibition (IC50) (at EGFR L858R; in assay [1]; at EGFR (d746-750)) were 4.3 nM, 4.3 nM and 2.5 nM, respectively.

As for `COc1cc2ncnc(-c3cn(C)nc3-c3ccccc3)c2nc1NC(=O)c1cn(C(C)C)nc1C` [Example 310, 1-isopropyl-N-(7-methoxy-4-(1-methyl-3-phenyl-1H-pyrazol-4-yl)pyrido[3,2-d]pyrimidin-6-yl)-3-methyl-1H-pyrazole-4-carboxamide], the IC50 came to 3.4 nM on EGFR L858R, 3.1 nM in assay [1] and 1.3 nM at EGFR (d746-750).

On to `COc1cc2ncnc(-c3cn(C)nc3-c3ccccc3)c2nc1O[C@H](C)c1cocn1` [Example 40, (R)-4-(1-((7-methoxy-4-(1-methyl-3-phenyl-1H-pyrazol-4-yl)pyrido[3,2-d]pyrimidin-6-yl)oxy)ethyl) oxazole], for which the half-inhibitory concentration (IC50) on EGFR L858R stood at 4.2 nM; in assay [1], 1.5 nM; on EGFR (d746-750), 2.9 nM.

Take `COc1cc2ncnc(-c3cn(CC(F)F)nc3-c3ccccc3)c2cc1OC(=O)N1CCN(C)C[C@@H]1C` [Example 70, 4-(1-(2,2-difluoroethyl)-3-phenyl-1H-pyrazol-4-yl)-7-methoxyquinazolin-6-yl (S)-2,4-dimethylpiperazine-1-carboxylate]: the half-maximal inhibitory concentration (IC50) at EGFR L858R was 2.7 nM; in assay [1] it was 1.6 nM; on EGFR (d746-750) it was 1.7 nM.

Take `COc1cc2ncnc(-c3cn(CC(F)F)nc3-c3ccccc3)c2cc1NC(=O)c1cnn(C(C)C)c1` [Example 270, N-(4-(1-(2,2-difluoroethyl)-3-phenyl-1H-pyrazol-4-yl)-7-methoxyquinazolin-6-yl)-1-isopropyl-1H-pyrazole-4-carboxamide]: the concentration for half-maximal inhibition (IC50) at EGFR L858R was determined as 2.1 nM; in assay [1] it was 1.4 nM; at EGFR (d746-750) it was 1.4 nM.

Consider `COc1cc2ncnc(-c3cn(CC(F)F)nc3-c3ccccc3)c2cc1[C@@H](C)O` (single isomer, unassigned) [Example 102, (R)-1-(4-(1-(2,2-difluoroethyl)-3-phenyl-1H-pyrazol-4-yl)-7-methoxyquinazolin-6-yl)ethan-1-ol or (S)-1-(4-(1-(2,2-difluoroethyl)-3-phenyl-1H-pyrazol-4-yl)-7-methoxyquinazolin-6-yl)ethan-1-ol], for which the IC50 on EGFR L858R worked out at 2 nM; in assay [1] it was 4.1 nM; at EGFR (d746-750), 1.2 nM.

Regarding `CCC(=O)Nc1cc2c(-c3cn(C)nc3-c3ccccc3)ncnc2cc1OCC1COC1` [Example 277, N-(4-(1-methyl-3-phenyl-1H-pyrazol-4-yl)-7-(oxetan-3-ylmethoxy)quinazolin-6-yl)propionamide], the IC50 on EGFR L858R amounted to 3.7 nM; in assay [1] it was 6 nM; on EGFR (d746-750), 1.9 nM.

With `CCOc1cc2ncnc(-c3cn(C)nc3-c3ccccc3)c2cc1N1CCN(C)CC1` [Example 162, 7-ethoxy-4-(1-methyl-3-phenyl-1H-pyrazol-4-yl)-6-(4-methylpiperazin-1-yl)quinazoline], the IC50 at EGFR L858R was determined as 7 nM; in assay [1], 6 nM; at EGFR (d746-750), 2.6 nM.

On to `COc1cc2ncnc(-c3cn(C)nc3-c3ccccc3)c2cc1NC(=O)c1cnn2c1CCCC2` [Example 226, N-(7-methoxy-4-(1-methyl-3-phenyl-1H-pyrazol-4-yl)quinazolin-6-yl)-4,5,6,7-tetrahydropyrazolo[1,5-a]pyridine-3-carboxamide], for which the IC50 at EGFR L858R is 1.6 nM; in assay [1] it was 1.4 nM; at EGFR (d746-750) it was 1 nM.

Turning to `CCn1cc(-c2ncnc3cc(OC)c(NC(=O)C4(C(F)(F)F)CC4)nc23)c(-c2ccccc2)n1` [Example 371, N-(4-(1-ethyl-3-phenyl-1H-pyrazol-4-yl)-7-methoxypyrido[3,2-d]pyrimidin-6-yl)-1-(trifluoromethyl)cyclopropane-1-carboxamide], the IC50 at EGFR L858R was 1.4 nM; in assay [1], 0.8 nM; at EGFR (d746-750) it was 0.9 nM.

Consider `COc1cc2ncnc(-c3cn(C)nc3-c3ccccc3)c2cc1N1CCOCC1` [Example 160, 4-(7-methoxy-4-(1-methyl-3-phenyl-1H-pyrazol-4-yl)quinazolin-6-yl)morpholine], for which the IC50 at EGFR L858R was 20 nM; in assay [1], 8.3 nM; on EGFR (d746-750) it was 2.9 nM.

Consider `[2H]C([2H])([2H])n1cc(-c2ncnc3cc(OC)c(NC(=O)C45CC(N(C)C)(C4)C5)nc23)c(-c2ccccc2)n1` [Example 494], for which the values for the IC50 (on EGFR L858R; in assay [1]; on EGFR (d746-750)) were 4.4 nM, 3.6 nM and 1.2 nM, respectively.

For the molecule `COc1cc2ncnc(-c3cn(C)nc3-c3ccccc3)c2cc1OC(=O)N1C[C@@H](C)OC[C@@H]1C` (racemic) [Example 91, trans-rac-7-methoxy-4-(1-methyl-3-phenyl-1H-pyrazol-4-yl)quinazolin-6-yl (2R,5S)-2,5-dimethylmorpholine-4-carboxylate or cis-rac-7-methoxy-4-(1-methyl-3-phenyl-1H-pyrazol-4-yl)quinazolin-6-yl (2S,5S)-2,5-dimethylmorpholine-4-carboxylate], the IC50 on EGFR L858R was found to be 9.3 nM; in assay [1] it was 9.5 nM; at EGFR (d746-750), 5.6 nM.

With `CCn1cc(-c2ncnc3cc(OC)c(NC(=O)c4cnn(C(F)(F)F)c4)nc23)c(-c2ccccc2)n1` [Example 314, N-(4-(1-ethyl-3-phenyl-1H-pyrazol-4-yl)-7-methoxypyrido[3,2-d]pyrimidin-6-yl)-1-(trifluoromethyl)-1H-pyrazole-4-carboxamide], the concentration for half-maximal inhibition (IC50) is 1.4 nM on EGFR L858R, 1.1 nM in assay [1] and 0.8 nM on EGFR (d746-750).

Turning to `COc1cc2ncnc(-c3cn(C)nc3-c3ccccc3)c2cc1NC(=O)c1cccnc1C` [Example 195, N-(7-methoxy-4-(1-methyl-3-phenyl-1H-pyrazol-4-yl)quinazolin-6-yl)-2-methylnicotinamide], the IC50 was determined as 3.8 nM at EGFR L858R, 5.9 nM in assay [1] and 1.6 nM at EGFR (d746-750).

As to `CCOc1cc2ncnc(-c3cn(C)nc3-c3ccccc3)c2cc1NC(=O)[C@]12C[C@H]1CN(C)C2` (single isomer, unassigned) [Example 257, (1R,5R)—N-(7-ethoxy-4-(1-methyl-3-phenyl-1H-pyrazol-4-yl)quinazolin-6-yl)-3-methyl-3-azabicyclo[3.1.0]hexane-1-carboxamide or (1S,5S)—N-(7-ethoxy-4-(1-methyl-3-phenyl-1H-pyrazol-4-yl)quinazolin-6-yl)-3-methyl-3-azabicyclo[3.1.0]hexane-1-carboxamide], the IC50 on EGFR L858R is 1.5 nM; in assay [1] it was 4.8 nM; at EGFR (d746-750), 0.9 nM.

With `CC(C)Oc1cc2ncnc(-c3cn(C)nc3-c3ccccc3)c2cc1[C@H](C)O` (single isomer, unassigned) [Example 113, (S)-1-(7-isopropoxy-4-(1-methyl-3-phenyl-1H-pyrazol-4-yl)quinazolin-6-yl)ethan-1-ol or (R)-1-(7-isopropoxy-4-(1-methyl-3-phenyl-1H-pyrazol-4-yl)quinazolin-6-yl)ethan-1-ol], the figures for the IC50 (on EGFR L858R; in assay [1]; on EGFR (d746-750)) were 5.5 nM, 11.2 nM and 2.4 nM, respectively.

`COc1cc2ncnc(-c3cn(C)nc3-c3ccccc3)c2cc1O[C@@H]1CN(C)C[C@@H]1F` [Example 5, 6-(((3R,4S)-4-fluoro-1-methylpyrrolidin-3-yl)oxy)-7-methoxy-4-(1-methyl-3-phenyl-1H-pyrazol-4-yl)quinazoline]: the IC50 at EGFR L858R came to 3 nM; in assay [1] it was 4.6 nM; on EGFR (d746-750), 2 nM.

In the case of `COc1cc2ncnc(-c3cn(C)nc3-c3ccccc3)c2cc1OC(=O)N1CCN2CCCC2C1` (stereo in doubt) [Example 85, 7-methoxy-4-(1-methyl-3-phenyl-1H-pyrazol-4-yl)quinazolin-6-yl (R)-hexahydropyrrolo[1,2-a]pyrazine-2(1H)-carboxylate], the 50% inhibitory concentration (IC50) turned out to be 3.9 nM at EGFR L858R, 13.3 nM in assay [1] and 2.7 nM on EGFR (d746-750).

Usually IC50 stands for the midpoint of a concentration-inhibition curve.
